According to patent US12016852B2, “Pyrrolidine glycosidase inhibitors” (Asceneuron SA, priority 2018, dated 2024):

target: T1, Human O-GlcNAcase (His-Tagged hOGA) (Homo sapiens, UniProt O60502); assay: Human O-GlcNAcase enzyme inhibition assay; format: biochemical; settings: 20 nM His-Tagged hOGA, 10 μM FL-GlcNAc, McIlvaine's Buffer pH 6.5, 60 min at room temperature, fluorescence; read-out: OGA IC50
T1 sequence (O60502 1-916): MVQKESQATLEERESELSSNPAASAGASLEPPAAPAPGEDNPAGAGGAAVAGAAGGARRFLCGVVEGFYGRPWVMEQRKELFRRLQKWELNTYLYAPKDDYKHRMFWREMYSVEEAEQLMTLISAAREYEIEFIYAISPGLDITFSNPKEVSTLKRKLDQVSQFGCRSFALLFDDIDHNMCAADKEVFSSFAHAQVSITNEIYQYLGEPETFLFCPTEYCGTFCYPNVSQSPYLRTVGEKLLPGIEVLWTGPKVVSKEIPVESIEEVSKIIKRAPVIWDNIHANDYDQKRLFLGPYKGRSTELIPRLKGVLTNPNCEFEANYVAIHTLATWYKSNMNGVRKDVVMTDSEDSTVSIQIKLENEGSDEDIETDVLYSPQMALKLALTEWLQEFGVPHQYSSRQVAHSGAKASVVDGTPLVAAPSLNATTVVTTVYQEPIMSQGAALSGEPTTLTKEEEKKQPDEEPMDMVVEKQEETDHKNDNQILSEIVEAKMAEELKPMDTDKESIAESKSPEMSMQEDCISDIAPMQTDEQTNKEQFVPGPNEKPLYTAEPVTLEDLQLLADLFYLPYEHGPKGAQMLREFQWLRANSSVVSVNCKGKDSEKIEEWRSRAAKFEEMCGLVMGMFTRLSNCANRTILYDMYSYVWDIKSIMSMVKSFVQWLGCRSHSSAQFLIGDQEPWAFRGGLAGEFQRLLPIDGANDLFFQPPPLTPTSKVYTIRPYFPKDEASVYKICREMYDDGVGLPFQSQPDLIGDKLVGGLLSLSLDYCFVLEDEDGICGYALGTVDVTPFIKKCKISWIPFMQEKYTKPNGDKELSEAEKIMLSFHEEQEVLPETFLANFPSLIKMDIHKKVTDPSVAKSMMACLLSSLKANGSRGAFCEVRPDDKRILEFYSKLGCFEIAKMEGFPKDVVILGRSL
Procedure: Example B01: Human O-GlcNAcase Enzyme Inhibition Assay
5 μl of the appropriate concentration of a solution of inhibitor in Mcllvaine's Buffer (pH 6.5) in 2% DMSO (for a dose response curve calculation) is added into each well of a 384-well plate (Greiner, 781900). Then, 20 nM of His-Tagged hOGA and 10 μM of FL-GlcNAc (Fluorescein mono-beta-D-(2-deoxy-2-N-acetyl) glucopyranoside; Marker Gene Technologies Inc, M1485) were added to the 384-well plate for a final volume of 20 μl. After incubation for 60 min at room temperature, the reaction was terminated by the addition of 10 μL of stop buffer (200 mM glycine, pH 10.75). The level of fluorescence (λexc 485 nm; (λemm 520 nm) was read on a PHERAstar machine. The amount of fluorescence measured was plotted against the concentration of inhibitor to produce a sigmoidal dose response curve to calculate an IC50. All individual data was corrected by subtraction of the background (Thiamet 3 uM=100% inhibition) whilst 0.5% DMSO was considered as the control value (no inhibition).

Row | IC50 | Structure (SMILES)
1 | 1000 to 10000 nM | Cc1cc(CN2CCCC2c2ccc3c(c2)OCCO3)ccc1-c1ccncc1 (racemic) [Example 147]
2 | 50 to 200 nM | CS(=O)(=O)c1cnc(-c2ccc(CN3CCCC3c3ccc4c(c3)OCCO4)cc2)nc1 (racemic) [Example 149]
3 | 50 to 200 nM | Cn1cc(-c2ccc(CN3CCCC3c3ccc4cccnc4c3)cc2)cn1 (racemic) [Example 150]
4 | 200 to 1000 nM | COc1cccc(-c2ccc(CN3CCCC3c3ccc4c(c3)OCCO4)cc2)n1 (racemic) [Example 151]
5 | 200 to 1000 nM | Cn1ccc(-c2ccc(CN3CCCC3c3ccc4c(c3)OCCO4)cc2)n1 (racemic) [Example 152]
6 | 200 to 1000 nM | Brc1cncc(Oc2ccc(CN3CCCC3c3ccc4c(c3)OCCO4)cc2)c1 (racemic) [Example 153]
7 | 200 to 1000 nM | N#Cc1ccc(Oc2ccc(CN3CCCC3c3ccc4c(c3)OCCO4)cc2)cc1 (racemic) [Example 154]
8 | 200 to 1000 nM | Cc1cc(-c2ccc(CN3CCCC3c3ccc4c(c3)OCCO4)cn2)ccn1 (racemic) [Example 155]
9 | 200 to 1000 nM | Cc1cc(C(=O)Nc2ccc(CN3CCCC3c3ccc4c(c3)OCCO4)cc2)cc(C)n1 (racemic) [Example 156]
10 | 200 to 1000 nM | Fc1cccc(Oc2ccc(CN3CCCC3c3ccc4c(c3)OCCO4)cc2)n1 (racemic) [Example 157]
11 | 200 to 1000 nM | Cc1cc(C(=O)Nc2ccc(CN3CCCC3c3ccc4c(c3)OCCO4)cc2)ccn1 (racemic) [Example 158]
12 | < 50 nM | COc1ncc(-c2ccc(CN3CCCC3c3ccc4c(c3)OCCO4)cc2)cn1 (racemic) [Example 159]
13 | 50 to 200 nM | Fc1ccc(-c2ccc(CN3CCCC3c3ccc4c(c3)OCCO4)cc2)nc1 (racemic) [Example 160]
14 | 1000 to 10000 nM | Cc1ccc(-c2nc(CN3CCCC3c3ccc4c(c3)OCO4)co2)cc1 (single isomer, unassigned) [Example 2, (S)-4-((2-(benzo[d] [1,3]dioxol-5-yl)pyrrolidin-1-yl)methyl)-2-(D-tolyl)oxazole or (R)-4-((2-(benzo[d] [1,3]dioxol-5-yl)pyrrolidin-1-yl)methyl)-2-(D-tolyl)oxazole]
15 | < 50 nM | Cn1cc(-c2ccc(CN3CCCC3c3ccc4c(c3)OCCO4)cc2)cn1 (single isomer, unassigned) [Example 6, (S)-4-(4-((2-(2,3-dihydrobenzo[b] [1,4]dioxin-6-yl)pyrrolidin-1-yl)methyl)phenyl)-1-methyl-1H-pyrazole or (R)-4-(4-((2-(2,3-dihydrobenzo[b] [1,4]dioxin-6-yl)pyrrolidin-1-yl)methyl)phenyl)-1-methyl-1 H-pyrazole]
16 | 50 to 200 nM | Cn1cc(-c2ccc(CN3CCCC3c3ccc4c(c3)OCCO4)cn2)cn1 (single isomer, unassigned) [Example 7, (S)-5-((2-(2,3-dihydrobenzo[b] [1,4]dioxin-6-yl)pyrrolidin-1-yl)methyl)-2-(1-methyl-1H-pyrazol-4-yl)pyridine or (R)-5-((2-(2,3-dihydrobenzo[b] [1,4]dioxin-6-yl)pyrrolidin-1-yl)methyl)-2-(1-methyl-1H-pyrazol-4-yl)pyridine]
17 | 200 to 1000 nM | CS(=O)(=O)c1ccc(CN2CCCC2c2ccc3c(c2)OCCO3)cc1 (single isomer, unassigned) [Example 13, (S)-2-(2,3-dihydrobenzo[b] [1,4]dioxin-6-yl)-1-(4-(methylsulfonyl)benzyl) pyrrolidine or (R)-2-(2,3-dihydrobenzo[b] [1,4]dioxin-6-yl)-1-(4-(methylsulfonyl)benzyl) pyrrolidine]
18 | 1000 to 10000 nM | Cn1cc(-c2ccc(CN3CCCC3c3ccc4c(c3)OCCO4)nc2)cn1 (single isomer, unassigned) [Example 18, (S)-2-((2-(2,3-dihydrobenzo[b] [1,4]dioxin-6-yl)pyrrolidin-1-yl)methyl)-5-(1-methyl-1H-pyrazol-4-yl)pyridine or (R)-2-((2-(2,3-dihydrobenzo[b] [1,4]dioxin-6-yl)pyrrolidin-1-yl)methyl)-5-(1-methyl-1H-pyrazol-4-yl)pyridine]
19 | 50 to 200 nM | c1cnc2ccc(CN3CCCC3c3ccc4c(c3)OCCO4)cc2c1 (single isomer, unassigned) [Example 25, (S)-6-((2-(2,3-dihydrobenzo[b] [1,4]dioxin-6-yl)pyrrolidin-1-yl)methyl)quinolone or (R)-6-((2-(2,3-dihydrobenzo[b] [1,4]dioxin-6-yl)pyrrolidin-1-yl)methyl)quinolone]
20 | 50 to 200 nM | c1cnn(-c2ccc(CN3CCCC3c3ccc4c(c3)OCCO4)cc2)c1 (single isomer, unassigned) [Example 27, (S)-1-(4-((2-(2,3-dihydrobenzo[b] [1,4]dioxin-6-yl)pyrrolidin-1-yl)methyl)phenyl)-1 H-pyrazole or (R)-1-(4-((2-(2,3-dihydrobenzo[b] [1,4]dioxin-6-yl)pyrrolidin-1-yl)methyl)phenyl)-1H-pyrazole]
21 | 50 to 200 nM | Cc1cc(-c2cccnc2)ccc1CN1CCCC1c1ccc2c(c1)OCCO2 (single isomer, unassigned) [Example 33, (S)-3-(4-((2-(2,3-dihydrobenzo[b] [1,4]dioxin-6-yl)pyrrolidin-1-ylmethyl)-3-methylphenyl)pyridine or (R)-3-(4-((2-(2,3-dihydrobenzo[b] [1,4]dioxin-6-yl)pyrrolidin-1-yl)methyl)-3-methylphenyl)pyridine]
22 | 50 to 200 nM | c1ccc(-c2ccc(CN3CCCC3c3ccc4c(c3)OCCO4)cc2)nc1 (single isomer, unassigned) [Example 40, (S)-2-(4-((2-(2,3-dihydrobenzo[b] [1,4]dioxin-6-yl)pyrrolidin-1-yl)methyl)phenyl)pyridine or (R)-2-(4-((2-(2,3-dihydrobenzo[b] [1,4]dioxin-6-yl)pyrrolidin-1-yl)methyl)phenyl)pyridine]
23 | 50 to 200 nM | c1ncn(-c2ccc(CN3CCCC3c3ccc4c(c3)OCCO4)cc2)n1 (single isomer, unassigned) [Example 48, (S)-1-(4-((2-(2,3-dihydrobenzo[b] [1,4]dioxin-6-yl)pyrrolidin-1-yl)methyl) Phenyl)-1H-1,2,4-triazole or (R)-1-(4-((2-(2,3-dihydrobenzo[b] [1,4]dioxin-6-yl)pyrrolidin-1-yl)methyl)phenyl)-1 H-1,2,4-triazole]
24 | 50 to 200 nM | CS(=O)(=O)N1CCN(c2ccc(CN3CCCC3c3ccc4c(c3)OCCO4)cc2)CC1 (single isomer, unassigned) [Example 53, (S)-1-(4-((2-(2,3-dihydrobenzo[b] [1,4]dioxin-6-yl)pyrrolidin-1-yl)methyl)phenyl)-4-(methylsulfonyl)piperazine or (R)-1-(4-((2-(2,3-dihydrobenzo[b] [1,4]dioxin-6-yl)pyrrolidin-1-yl)methyl)phenyl)-4-(methylsulfonyl)piperazine]
25 | 200 to 1000 nM | O=C1CSCCN1c1ccc(CN2CCCC2c2ccc3c(c2)OCCO3)cc1 (single isomer, unassigned) [Example 73]
26 | 1000 to 10000 nM | O=C1CSCCN1c1ccc(CN2CCCC2c2ccc3c(c2)OCCO3)cc1 (single isomer, unassigned) [Example 74]
27 | 50 to 200 nM | c1cnc(-c2ccc(CN3CCCC3c3ccc4c(c3)OCCO4)cc2)nc1 (single isomer, unassigned) [Example 75, (S)-2-(4-((2-(2,3-dihydrobenzo[b] [1,4]dioxin-6-yl)pyrrolidin-1-yl)methyl)phenyl)pyrimidine or (R)-2-(4-((2-(2,3-dihydrobenzo[b] [1,4]dioxin-6-yl)pyrrolidin-1-yl)methyl)phenyl)pyrimidine]
28 | 200 to 1000 nM | Cn1cc(-c2ccc(CN3CCCC3c3ccc4c(c3)OCCO4)nc2)cn1 (single isomer, unassigned) [Example 145]
29 | 1000 to 10000 nM | CS(=O)(=O)N1CCN(c2ccc(CN3CCCC3c3ccc4c(c3)OCCO4)cc2)CC1 (single isomer, unassigned) [Example 148]
